ChEMBL document CHEMBL1201862, “PubChem BioAssay data set” (2004)
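All cell lines were grown in 96-well plates and treated with compound for 48 hours. GI50: concentration for 50% inhibition of growth.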 Active and inactive are the calls of the source. Rule as the data show it: active = GI50 up to about 1.1 µM and inactive = higher.

Tests used:
Assay in all cases: DTP human tumour cell line panel, 48 h
NCI-H23 = tested on: NCI-H23
SR = tested on: SR
SN12C = tested on: SN12C
DU-145 = tested on: DU-145
UACC-62 = tested on: UACC-62
LOX IMVI = tested on: LOX IMVI
M14 = tested on: M14
NCI/ADR-RES = tested on: NCI/ADR-RES
NCI-H522 = tested on: NCI-H522
Malme-3M = tested on: Malme-3M
KM12 = tested on: KM12
MOLT-4 = tested on: MOLT-4
MCF7 = tested on: MCF7
HCT-15 = tested on: HCT-15
A549 = tested on: A549
T47D = tested on: T47D
A498 = tested on: A498
MDA-MB-231 = tested on: MDA-MB-231
K562 = tested on: K562
HOP-92 = tested on: HOP-92

Structure (SMILES)	GI50 (NCI-H23)	GI50 (SR)	GI50 (SN12C)	GI50 (DU-145)	GI50 (UACC-62)	GI50 (LOX IMVI)	GI50 (M14)	GI50 (NCI/ADR-RES)	GI50 (NCI-H522)	GI50 (Malme-3M)	GI50 (KM12)	GI50 (MOLT-4)	GI50 (MCF7)	GI50 (HCT-15)	GI50 (A549)	GI50 (T47D)	GI50 (A498)	GI50 (MDA-MB-231)	GI50 (K562)	GI50 (HOP-92)
OCCNCCN1CCN(CCCN2c3ccccc3Sc3ccc(C(F)(F)F)cc32)CC1	27.2 µM (inactive)	> 100 µM (inactive)	18.2 µM (inactive)	50.6 µM (inactive)	22.3 µM (inactive)	14.5 µM (inactive)	15.3 µM (inactive)	27.8 µM (inactive)	19.2 µM (inactive)	29.5 µM (inactive)	27.2 µM (inactive)	> 100 µM (inactive)	23.6 µM (inactive)	19.7 µM	24 µM (inactive)	27.1 µM (inactive)	> 100 µM (inactive)	20.9 µM (inactive)	–	–
Cc1cc2nnn(C3CCCO3)c2cc1C (configuration not stated)	> 100 µM (inactive)	> 100 µM (inactive)	> 100 µM (inactive)	> 100 µM (inactive)	> 100 µM (inactive)	–	> 100 µM (inactive)	> 100 µM (inactive)	> 100 µM (inactive)	> 100 µM (inactive)	–	> 100 µM (inactive)	> 100 µM (inactive)	> 100 µM	> 100 µM (inactive)	> 100 µM (inactive)	> 100 µM (inactive)	> 100 µM (inactive)	> 100 µM (inactive)	–
O=P(O)(O)CC1OC(CO)C(O)C1O (configuration not stated)	> 100 µM (inactive)	–	> 100 µM (inactive)	> 100 µM (inactive)	> 100 µM (inactive)	> 100 µM (inactive)	> 100 µM (inactive)	> 100 µM (inactive)	> 100 µM (inactive)	> 100 µM (inactive)	> 100 µM (inactive)	> 100 µM (inactive)	> 100 µM (inactive)	> 100 µM	> 100 µM (inactive)	> 100 µM (inactive)	> 100 µM (inactive)	> 100 µM (inactive)	> 100 µM (inactive)	> 100 µM (inactive)
COc1cc2c(cc1OC)C(=O)N(NC1=NCCN1)C2=O	> 100 µM (inactive)	63 µM (inactive)	> 100 µM (inactive)	> 100 µM (inactive)	> 100 µM (inactive)	> 100 µM (inactive)	> 100 µM (inactive)	> 100 µM (inactive)	> 100 µM (inactive)	> 100 µM (inactive)	> 100 µM (inactive)	> 100 µM (inactive)	> 100 µM (inactive)	> 100 µM	> 100 µM (inactive)	> 100 µM (inactive)	> 100 µM (inactive)	> 100 µM (inactive)	> 100 µM (inactive)	–
COc1ccc(/C=C2\NC(=S)N(/C=C3\C(=O)Oc4ccccc4C3=O)C2=O)cc1OC	> 100 µM (inactive)	–	> 100 µM (inactive)	> 100 µM (inactive)	> 100 µM (inactive)	> 100 µM (inactive)	> 100 µM (inactive)	> 100 µM (inactive)	22.6 µM (inactive)	–	90.2 µM (inactive)	> 100 µM (inactive)	> 100 µM (inactive)	93.5 µM	> 100 µM (inactive)	> 100 µM (inactive)	54 µM (inactive)	> 100 µM (inactive)	> 100 µM (inactive)	73.6 µM (inactive)
CCc1nc2c(n1CC)C(=O)c1ccccc1C2=O	46.8 µM (inactive)	37.4 µM (inactive)	27.8 µM (inactive)	66.5 µM (inactive)	28.8 µM (inactive)	–	23.7 µM (inactive)	31.2 µM (inactive)	31.6 µM (inactive)	15.5 µM (inactive)	45.3 µM (inactive)	33.9 µM (inactive)	49.1 µM (inactive)	38.3 µM	43.2 µM (inactive)	18.3 µM (inactive)	–	16.9 µM (inactive)	44.5 µM (inactive)	63.2 µM (inactive)
O=c1ccc2ccc(OP(=O)(O)O)cc2o1	> 100 µM (inactive)	> 100 µM (inactive)	> 100 µM (inactive)	93.1 µM (inactive)	> 100 µM (inactive)	> 100 µM (inactive)	> 100 µM (inactive)	> 100 µM (inactive)	> 100 µM (inactive)	> 100 µM (inactive)	> 100 µM (inactive)	> 100 µM (inactive)	> 100 µM (inactive)	> 100 µM	> 100 µM (inactive)	> 100 µM (inactive)	> 100 µM (inactive)	> 100 µM (inactive)	> 100 µM (inactive)	–
CC1CC2(OC2C)C(=O)OC2CCN(C)C/C=C(/COC(=O)C1(C)O)C2=O (configuration not stated)	> 100 µM (inactive)	–	> 100 µM (inactive)	> 100 µM (inactive)	> 100 µM (inactive)	> 100 µM (inactive)	> 100 µM (inactive)	> 100 µM (inactive)	> 100 µM (inactive)	> 100 µM (inactive)	> 100 µM (inactive)	> 10 µM (inactive)	> 100 µM (inactive)	> 100 µM	> 100 µM (inactive)	> 100 µM (inactive)	> 100 µM (inactive)	> 100 µM (inactive)	> 100 µM (inactive)	> 100 µM (inactive)
CCOC(=O)c1ccc(C(=O)OCC)n1-c1cc2cc(c1)CSCc1cc(cc(-n3c(C(=O)OCC)ccc3C(=O)OCC)c1)CSC2	> 10 µM (inactive)	> 10 µM (inactive)	> 10 µM (inactive)	> 10 µM (inactive)	> 10 µM (inactive)	> 10 µM (inactive)	> 10 µM (inactive)	> 10 µM (inactive)	> 10 µM (inactive)	> 10 µM (inactive)	> 10 µM (inactive)	> 10 µM (inactive)	> 10 µM (inactive)	> 10 µM	> 10 µM (inactive)	> 10 µM (inactive)	–	> 10 µM (inactive)	> 10 µM (inactive)	> 10 µM (inactive)
CCNC1CC(C(C)(C)NCC)CC=C1C (configuration not stated)	> 100 µM (inactive)	> 100 µM (inactive)	> 100 µM (inactive)	> 100 µM (inactive)	> 100 µM (inactive)	> 100 µM (inactive)	> 100 µM (inactive)	> 100 µM (inactive)	> 100 µM (inactive)	–	> 100 µM (inactive)	> 100 µM (inactive)	> 100 µM (inactive)	> 100 µM	> 100 µM (inactive)	> 100 µM (inactive)	–	> 100 µM (inactive)	> 100 µM (inactive)	> 100 µM (inactive)
COc1ccc(CCc2ccc(O)c(C(=O)O)c2)cc1OC	> 100 µM (inactive)	> 100 µM (inactive)	> 100 µM (inactive)	> 100 µM (inactive)	> 100 µM (inactive)	7.5 µM (inactive)	> 100 µM (inactive)	> 100 µM (inactive)	> 100 µM (inactive)	> 100 µM (inactive)	> 100 µM (inactive)	59.2 µM (inactive)	> 100 µM (inactive)	84.1 µM	> 100 µM (inactive)	> 100 µM (inactive)	–	57.8 µM (inactive)	59.7 µM (inactive)	> 100 µM (inactive)
COc1ccc(C2CC(c3c(O)ccc4ccccc34)=NN2c2ccc([N+](=O)[O-])cc2[N+](=O)[O-])cc1OC (configuration not stated)	6.82 µM (inactive)	–	29.8 µM (inactive)	30.3 µM (inactive)	15.3 µM (inactive)	25.9 µM (inactive)	32.7 µM (inactive)	3.66 µM (inactive)	2.46 µM (inactive)	17.4 µM (inactive)	13.2 µM (inactive)	4.78 µM (inactive)	17.9 µM (inactive)	27 µM	17.1 µM (inactive)	6.25 µM (inactive)	7.18 µM (inactive)	20.9 µM (inactive)	3.47 µM (inactive)	19.4 µM (inactive)
COC(=O)C(C)(C)[C@@H]1OC(=O)N(S(=O)(=O)c2c(C)cc(C)cc2C)[C@H]1C(C)C	46.8 µM (inactive)	75.7 µM (inactive)	> 100 µM (inactive)	> 100 µM (inactive)	> 100 µM (inactive)	78 µM (inactive)	88.1 µM (inactive)	> 100 µM (inactive)	> 100 µM (inactive)	> 100 µM (inactive)	91.4 µM (inactive)	40 µM (inactive)	75.9 µM (inactive)	> 100 µM	85.7 µM (inactive)	63.5 µM (inactive)	–	> 100 µM (inactive)	> 100 µM (inactive)	23.1 µM (inactive)
NS(=O)(=O)c1cc2c(cc1Cl)N=C(CCC(=O)O)NS2(=O)=O	> 100 µM (inactive)	–	> 100 µM (inactive)	> 100 µM (inactive)	> 100 µM (inactive)	> 100 µM (inactive)	> 100 µM (inactive)	> 100 µM (inactive)	> 100 µM (inactive)	> 100 µM (inactive)	> 100 µM (inactive)	–	> 100 µM (inactive)	> 100 µM	> 100 µM (inactive)	> 100 µM (inactive)	> 100 µM (inactive)	> 100 µM (inactive)	> 100 µM (inactive)	> 100 µM (inactive)
CCCCCCCCOC1C(O)C(O)C(O)C(O)C12CO2 (configuration not stated)	16.1 µM (inactive)	48.4 µM (inactive)	51.2 µM (inactive)	76.6 µM (inactive)	83.4 µM (inactive)	48.4 µM (inactive)	–	40.5 µM (inactive)	26.7 µM (inactive)	57.5 µM (inactive)	43.9 µM (inactive)	38.9 µM (inactive)	46.5 µM (inactive)	50.4 µM	49.5 µM (inactive)	63.2 µM (inactive)	> 100 µM (inactive)	39.8 µM (inactive)	38.5 µM (inactive)	–
